According to patent US6737383B1, “Herbicidal oxadiazolidines” (priority 1999, dated 2004):

Tests used:
blackgrass = experiment: Test B pre/postemergence blackgrass; type: in vivo, Alopecurus myosuroides
Method in brief: (§1)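 Test chemicals in a non-phytotoxic solvent mixture with surfactant were sprayed preemergence onto planted seeds and postemergence onto plants 2 to 18 cm tall (1- to 4-leaf stage). After twelve to sixteen days in a greenhouse, injury was visually rated against untreated controls from 0 (no effect) to 10 (complete control).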

corn = experiment: Test B pre/postemergence corn; type: in vivo, Zea mays
Method in brief: as §1

sugar beet = experiment: Test B pre/postemergence sugar beet; type: in vivo, Beta vulgaris
Method in brief: as §1

cocklebur = experiment: Test B pre/postemergence cocklebur; type: in vivo, Xanthium strumarium
Method in brief: as §1

rape = experiment: Test B pre/postemergence rape; type: in vivo, Brassica napus
Method in brief: as §1

pigweed = experiment: Test B pre/postemergence pigweed; type: in vivo, Amaranthus retroflexus
Method in brief: as §1

bedstraw = experiment: Test B pre/postemergence bedstraw; type: in vivo, Galium aparine
Method in brief: as §1

soybean = experiment: Test B pre/postemergence soybean; type: in vivo, Glycine max
Method in brief: as §1

purple nutsedge = experiment: Test B pre/postemergence purple nutsedge; type: in vivo, Cyperus rotundus
Method in brief: as §1

morningglory = experiment: Test B pre/postemergence morningglory; type: in vivo, Ipomoea hederacea
Method in brief: as §1

wild oat = experiment: Test B pre/postemergence wild oat; type: in vivo, Avena fatua
Method in brief: as §1

wheat = experiment: Test B pre/postemergence wheat; type: in vivo, Triticum aestivum
Method in brief: as §1

giant foxtail = experiment: Test B pre/postemergence giant foxtail; type: in vivo, Setaria faberii
Method in brief: as §1

surinam grass = experiment: Test B pre/postemergence surinam grass; type: in vivo, Brachiaria decumbens
Method in brief: as §1

velvetleaf = experiment: Test B pre/postemergence velvetleaf; type: in vivo, Abutilon theophrasti
Method in brief: as §1

crabgrass = experiment: Test B pre/postemergence crabgrass; type: in vivo, Digitaria sanguinalis
Method in brief: as §1

[1] = Postemergence, Rate 62 g/ha, scale 0 to 10, 0 is no effect, 10 is complete control
[2] = Postemergence, Rate 125 g/ha, scale of 0 to 10 where 0 is no effect and 10 is complete control
[3] = Preemergence, Rate 125 g/ha, scale of 0 to 10 where 0 is no effect and 10 is complete control
[4] = Preemergence, Rate 250 g/ha, scale 0 (no effect) to 10 (complete control)
[5] = Rate 62 g/ha, Preemergence, scale 0 to 10
[6] = Rate 250 g/ha, Postemergence, scale 0 to 10, 0 is no effect, 10 is complete control
[7] = Rate 500 g/ha, Postemergence, scale 0 to 10, 0 is no effect, 10 is complete control
[8] = Rate 500 g/ha, Preemergence, scale 0 to 10 (0 no effect, 10 complete control)

Structure (SMILES): CC(C)N(C(=O)n1oc(=O)n(CCN(C)C(=O)c2ccccc2)c1=O)c1ccccc1 [Compound 761]
- Plant response rating, Blackgrass (blackgrass; [1]): 0
- Blackgrass plant response rating (blackgrass; [2]): 0
- Plant response rating, Blackgrass (blackgrass; [3]): 0
- Blackgrass plant response rating (blackgrass; [4]): 0
- Blackgrass plant response rating (blackgrass; [5]): 0
- Blackgrass plant response rating (blackgrass; [6]): 0
- Blackgrass plant response rating (blackgrass; [7]): 0
- Blackgrass plant response rating (blackgrass; [8]): 0
- Plant response rating, Corn (corn; [1]): 0
- Corn plant response rating (corn; [2]): 0
- Plant response rating, Corn (corn; [3]): 0
- Corn plant response rating (corn; [4]): 0
- Corn plant response rating (corn; [5]): 0
- Corn plant response rating (corn; [6]): 0
- Corn plant response rating (corn; [7]): 0
- Corn plant response rating (corn; [8]): 0
- Plant response rating, Sugarbeets (sugar beet; [1]): 2
- Plant response rating, Sugarbeets (sugar beet; [3]): 0
- Sugarbeets plant response rating (sugar beet; [4]): 0
- Sugarbeets plant response rating (sugar beet; [5]): 0
- Sugarbeets plant response rating (sugar beet; [6]): 3
- Sugarbeets plant response rating (sugar beet; [7]): 6
- Sugarbeets plant response rating (sugar beet; [8]): 0
- Plant response rating, Cocklebur (cocklebur; [1]): 0
- Cocklebur plant response rating (cocklebur; [2]): 0
- Plant response rating, Cocklebur (cocklebur; [3]): 0
- Cocklebur plant response rating (cocklebur; [4]): 0
- Cocklebur plant response rating (cocklebur; [5]): 0
- Cocklebur plant response rating (cocklebur; [6]): 0
- Cocklebur plant response rating (cocklebur; [7]): 0
- Cocklebur plant response rating (cocklebur; [8]): 0
- Plant response rating, Rape (rape; [1]): 0
- Rape plant response rating (rape; [2]): 0
- Plant response rating, Rape (rape; [3]): 0
- Rape plant response rating (rape; [4]): 0
- Rape plant response rating (rape; [5]): 0
- Rape plant response rating (rape; [6]): 0
- Rape plant response rating (rape; [7]): 0
- Rape plant response rating (rape; [8]): 0
- Plant response rating, Redroot pigweed (pigweed; [1]): 0
- Plant response rating, Redroot pigweed (pigweed; [3]): 0
- Redroot pigweed plant response rating (pigweed; [4]): 0
- Redroot pigweed plant response rating (pigweed; [5]): 0
- Redroot pigweed plant response rating (pigweed; [6]): 6
- Redroot pigweed plant response rating (pigweed; [7]): 6
- Redroot pigweed plant response rating (pigweed; [8]): 0
- Bedstraw plant response rating (bedstraw; [2]): 0
- Plant response rating, Bedstraw (bedstraw; [3]): 0
- Bedstraw plant response rating (bedstraw; [4]): 0
- Bedstraw plant response rating (bedstraw; [5]): 0
- Bedstraw plant response rating (bedstraw; [6]): 0
- Bedstraw plant response rating (bedstraw; [7]): 3
- Bedstraw plant response rating (bedstraw; [8]): 0
- Plant response rating, Soybean (soybean; [1]): 2
- Plant response rating, Soybean (soybean; [3]): 0
- Soybean plant response rating (soybean; [4]): 0
- Soybean plant response rating (soybean; [5]): 0
- Soybean plant response rating (soybean; [6]): 3
- Soybean plant response rating (soybean; [7]): 3
- Soybean plant response rating (soybean; [8]): 0
- Plant response rating, Nutsedge (purple nutsedge; [1]): 0
- Nutsedge plant response rating (purple nutsedge; [2]): 0
- Plant response rating, Nutsedge (purple nutsedge; [3]): 0
- Nutsedge plant response rating (purple nutsedge; [4]): 0
- Nutsedge plant response rating (purple nutsedge; [5]): 0
- Nutsedge plant response rating (purple nutsedge; [6]): 0
- Nutsedge plant response rating (purple nutsedge; [7]): 0
- Nutsedge plant response rating (purple nutsedge; [8]): 0
- Plant response rating, Morningglory (morningglory; [1]): 0
- Morningglory plant response rating (morningglory; [2]): 6
- Plant response rating, Morningglory (morningglory; [3]): 0
- Morningglory plant response rating (morningglory; [4]): 0
- Morningglory plant response rating (morningglory; [5]): 0
- Morningglory plant response rating (morningglory; [6]): 7
- Morningglory plant response rating (morningglory; [8]): 0
- Plant response rating, Wild oats (wild oat; [1]): 0
- Plant response rating, Wild oats (wild oat; [3]): 0
- Wild oats plant response rating (wild oat; [4]): 0
- Wild oats plant response rating (wild oat; [5]): 0
- Wild oats plant response rating (wild oat; [6]): 0
- Wild oats plant response rating (wild oat; [7]): 0
- Wild oats plant response rating (wild oat; [8]): 0
- Plant response rating, Wheat (wheat; [1]): 0
- Plant response rating, Wheat (wheat; [3]): 0
- Wheat plant response rating (wheat; [4]): 0
- Wheat plant response rating (wheat; [5]): 0
- Wheat plant response rating (wheat; [6]): 0
- Wheat plant response rating (wheat; [7]): 0
- Wheat plant response rating (wheat; [8]): 0
- Plant response rating, Giant foxtail (giant foxtail; [1]): 0
- Giant foxtail plant response rating (giant foxtail; [2]): 0
- Plant response rating, Giant foxtail (giant foxtail; [3]): 0
- Giant foxtail plant response rating (giant foxtail; [4]): 8
- Giant foxtail plant response rating (giant foxtail; [5]): 0
- Giant foxtail plant response rating (giant foxtail; [7]): 3
- Giant foxtail plant response rating (giant foxtail; [8]): 9
- Plant response rating, B. signalgrass (surinam grass; [1]): 0
- B. signalgrass plant response rating (surinam grass; [2]): 0
- B. signalgrass plant response rating (surinam grass; Preemergence, Rate 62 g/ha, scale of 0 to 10 where 0 is no effect and 10 is complete control): 0
- Plant response rating, B. signalgrass (surinam grass; [3]): 0
- B. signalgrass plant response rating (surinam grass; [4]): 0
- B. signalgrass plant response rating (surinam grass; [6]): 3
- B. signalgrass plant response rating (surinam grass; [7]): 3
- B. signalgrass plant response rating (surinam grass; [8]): 3
- Plant response rating, Velvetleaf (velvetleaf; [1]): 0
- Plant response rating, Velvetleaf (velvetleaf; [3]): 0
- Velvetleaf plant response rating (velvetleaf; [4]): 0
- Velvetleaf plant response rating (velvetleaf; [5]): 0
- Velvetleaf plant response rating (velvetleaf; [6]): 0
- Velvetleaf plant response rating (velvetleaf; [7]): 0
- Velvetleaf plant response rating (velvetleaf; [8]): 0
- Plant response rating, Crabgrass (crabgrass; [3]): 3
- Crabgrass plant response rating (crabgrass; [4]): 5
- Crabgrass plant response rating (crabgrass; [5]): 3
- Crabgrass plant response rating (crabgrass; [6]): 0
- Crabgrass plant response rating (crabgrass; [7]): 0
- Crabgrass plant response rating (crabgrass; [8]): 3
